Here are results for six compounds from US20170325459A1, “BICYCLIC COMPOUNDS AS PEST CONTROL AGENTS” (Bayer CropScience Aktiengesellschaft, priority 2014, published 2017).

One data set relates to Tetranychus urticae. As to the kind of experiment: Tetranychus urticae spray test, OP-resistant. The format is in vivo. As to conditions: application rate 500 g/ha, bean leaf discs, after 6 days. As for the experimental part: Tetranychus urticae—Spray Test, OP-Resistant
(§1) Solvent: 78.0 parts by weight of acetone • • 1.5 parts by weight of dimethylformamide
(§2) Emulsifier: alkylaryl polyglycol ether
(§3) To produce a suitable active ingredient formulation, 1 part by weight of active ingredient is dissolved using the specified parts by weight of solvent and made up with water containing an emulsifier concentration of 1000 ppm until the desired concentration is attained. To produce further test concentrations, the formulation is diluted with emulsifier-containing water.
Discs of bean leaves (Phaseolus vulgaris) infested with all stages of the greenhouse red spider mite (Tetranychus urticae) are sprayed with an active ingredient formulation of the desired concentration.
After 6 days, the efficacy in % is determined. 100% meant that all the spider mites have been killed and 0% means that no spider mites have been killed.

Data set [1] is described as follows: log P by HPLC (OECD Guideline 117), method [a] acidic range pH 2.7. Format: physicochemical. As to conditions: for chromatographic logP: reversed-phase (RP) C18 HPLC column. As for the experimental part:
(§4) The log P values were determined in accordance with OECD Guideline 117 (EC Directive 92/69/EEC) by HPLC (high-performance liquid chromatography) using reversed-phase (RP) columns (C18), by the following methods: [a] The LC-MS determination in the acidic range is carried out at pH 2.7 with 0.1% aqueous formic acid and acetonitrile (contains 0.1% formic acid) as eluents; linear gradient from 10% acetonitrile to 95% acetonitrile. [b] LC-MS determination in the neutral range is effected at pH 7.8 with 0.001 molar aqueous ammonium hydrogencarbonate solution and acetonitrile as eluents; linear gradient from 10% acetonitrile to 95% acetonitrile. Calibration is effected using unbranched alkan-2-ones (having 3 to 16 carbon atoms) with known log P values (log P values determined on the basis of the retention times by linear interpolation between two successive alkanones).

Data set [2] in a line: log P by HPLC (OECD Guideline 117), method [b] neutral range pH 7.8. The format is physicochemical. The settings on record: for chromatographic logP: reversed-phase (RP) C18 HPLC column. As for the experimental part: as §4
The test system of another data set is Myzus persicae. As to the kind of experiment: Myzus persicae spray test. The settings on record: application rate 500 g/ha, Chinese cabbage leaf discs, after 6 days; for pest or weed control at 500 g/ha: Myzus persicae, foliar, 144 h, read-out: efficacy (aphids killed). The format is in vivo. As for the experimental part: Myzus persicae—Spray Test Solvent: 78 parts by weight of acetone • • 1.5 parts by weight of dimethylformamide Emulsifier: alkylaryl polyglycol ether To produce a suitable active ingredient formulation, 1 part by weight of active ingredient is dissolved using the specified parts by weight of solvent and made up with water containing an emulsifier concentration of 1000 ppm until the desired concentration is attained. To produce further test concentrations, the formulation is diluted with emulsifier-containing water. Discs of Chinese cabbage leaves (Brassica pekinensis) infested by all stages of the green peach aphid (Myzus persicae) are sprayed with an active ingredient formulation of the desired concentration. After 6 days, the efficacy in % is determined. 100% means that all the aphids have been killed and 0% means that none of the aphids have been killed.

In another data set the test system is Phaedon cochleariae. As to the kind of experiment: Phaedon cochleariae spray test. The format is in vivo. As to conditions: application rate 500 g/ha, Chinese cabbage leaf discs, after 7 days. As for the experimental part: Phaedon cochleariae—Spray Test
as §1, §2, §3
After 7 days, the efficacy in % is determined. 100% means that all the beetle larvae have been killed and 0% means that none of the beetle larvae have been killed.

For a further data set, the system named is Boophilus microplus. As to the kind of experiment: Boophilus microplus injection test. The format is in vivo. The settings on record: application rate 20 μg/animal, injection into engorged adult female cattle ticks, assessed after 7 days. As for the experimental part:
Boophilus microplus—Injection Test Solvent: dimethyl sulphoxide To produce a suitable active ingredient formulation, 10 mg of active ingredient are mixed with 0.5 ml of solvent and the concentrate is diluted to the desired concentration with solvent. 1 μl of the active ingredient solution is injected into the abdomen of 5 engorged adult female cattle ticks (Boophilus microplus). The animals are transferred into dishes and kept in a climate-controlled room. Efficacy is assessed after 7 days by laying of fertile eggs. Eggs which are not visibly fertile are stored in a climate-controlled cabinet until the larvae hatch after about 42 days. An efficacy of 100% means that none of the ticks has laid any fertile eggs; 0% means that all the eggs are fertile.

Regarding `Cc1ccccc1-c1ccc2nc(-c3cccnc3)sc2c1` [compound 2], in the data set with Tetranychus urticae, the “efficacy (spider mites killed)” value turned out to be 90%. Besides, the “logP[a]” value in data set [1] is listed as 4.08. The “logP[b]” value in data set [2] was 4.24. In the data set with Myzus persicae, the “efficacy (aphids killed)” value turned out to be 100%.
For `Clc1cccc(-c2ccc3nc(-c4cccnc4)sc3c2)c1` [compound 7], the chromatographic logP – broadly, lipophilicity estimated from chromatographic retention – in data set [1] turned out to be 4.32; in data set [2], 4.49. For the same compound, the “efficacy (beetle larvae killed)” value in the data set with Phaedon cochleariae turned out to be 83%. Also, in the data set with Myzus persicae, the pest or weed control at 500 g/ha came to 100%.
In the case of `Clc1ccc(-c2ccc3nc(-c4cccnc4)sc3c2)cc1` [compound 8], the “logP[a]” value in data set [1] is 4.43. Further, in the data set on Phaedon cochleariae, the “efficacy (beetle larvae killed)” value worked out at 83%.
As to `c1cncc(-c2nc3ccc(-n4ccnc4)cc3s2)c1` [compound 25, 6-(1H-Imidazol-1-yl)-2-(pyridin-3-yl)-1,3-benzothiazole], in the data set with Boophilus microplus, the “efficacy (laying of fertile eggs)” value is listed as 80%. In addition, the chromatographic logP in data set [2] amounted to 1.64. The pest or weed control at 500 g/ha in the data set on Myzus persicae came to 90%.
`FC(F)(F)c1ccn(-c2ccc3nc(-c4cccnc4)sc3c2)n1` [compound 28, 2-(Pyridin-3-yl)-6-[3-(trifluoromethyl)-1H-pyrazol-1-yl]-1,3-benzothiazole]: the “efficacy (laying of fertile eggs)” value in the data set on Boophilus microplus was 80%. The chromatographic logP in data set [2] amounted to 3.46. Further, in the data set on Myzus persicae, the pest or weed control at 500 g/ha amounted to 100%.
For `Cn1c(=O)cnn(-c2ccc3nc(-c4cccnc4)sc3c2)c1=O` [compound 56, 4-Methyl-2-[2-(pyridin-3-yl)-1,3-benzothiazol-6-yl]-1,2,4-triazine-3,5(2H,4H)-dione], the chromatographic logP in data set [1] amounted to 1.79; in data set [2], 1.84. In addition, in the data set with Myzus persicae, the pest or weed control at 500 g/ha came out at 90%.
